Values after ≈ are worked out from the molar mass of the structure shown. Like-named read-outs stand apart in the source and are kept apart here.
How the values were obtained:
Assay type in all cases: cell-based
Yersinia enterocolitica = test: MIC by agar dilution (NCCLS M7-A4), 288 enteropathogenic isolates, eight quinolones; details: Yersinia enterocolitica (n = 22)
Aeromonas spp. = test: as above; details: Aeromonas spp. (n = 16)
Haemophilus influenzae [1] = test: MIC by agar dilution (NCCLS), 411 isolates Buenos Aires 1998-99; details: Haemophilus influenzae (n = 65)
Moraxella catarrhalis [2] = test: as above; details: Moraxella catarrhalis (n = 59)
Moraxella catarrhalis [3] = test: MIC by NCCLS reference broth microdilution, 450 respiratory tract pathogens
Klebsiella pneumoniae = test: as above; details: for MIC50 / MIC90: Klebsiella pneumoniae
Haemophilus influenzae [4] = test: MIC by two-fold serial agar dilution, Sensitivity Disk agar-N (Kitasato isolates); details: Haemophilus influenzae (24)
Staphylococcus aureus = test: MIC by NCCLS broth microdilution, 1100 Japanese clinical isolates 1997-1998; details: for MIC50 / MIC90 / MIC: Staphylococcus aureus; for MIC: Staphylococcus aureus quinolone resistant
[5] = test system: Staphylococcus epidermidis; test: as above; details: for MIC50 / MIC90: Staphylococcus epidermidis
Streptococcus pyogenes = test: as above
Enterococcus gallinarum = test: as above; details: Enterococcus gallinarum, GALLINARUM
Citrobacter freundii = test: as above
Salmonella spp. = test: as above; details: Salmonella spp. (n=29)
[6] = extended spectrum β-lactamase negative (n = 30)
[7] = extended spectrum β-lactamase positive (n = 20)
[8] = Staphylococcus aureus oxacillin resistant (n=57)
[9] = Staphylococcus aureus oxacillin susceptible (n=41)
[10] = Staphylococcus epidermidis oxacillin resistant (n=43)
[11] = Staphylococcus epidermidis oxacillin susceptible (n=35)

Q: Which results are given for `N[C@@H]1[C@H]2CN(c3nc4c(cc3F)c(=O)c(C(=O)O)cn4-c3ccc(F)cc3F)C[C@@H]12` [Trovafloxacin, trovafloxacin]?
A: % Susceptible (Yersinia enterocolitica): 100%; MIC50 (Yersinia enterocolitica): 0.06 µg/mL (≈ 0.144 µM); MIC90 (Yersinia enterocolitica): 0.06 µg/mL (≈ 0.144 µM); MIC Range (Yersinia enterocolitica): ≤0.015 to 0.25 µg/mL; % Susceptible (Aeromonas spp.): 100%; MIC50 (Aeromonas spp.): ≤ 0.015 µg/mL; MIC90 (Aeromonas spp.): 0.03 µg/mL (≈ 0.0721 µM); MIC Range (Aeromonas spp.): ≤0.015 to 0.25 µg/mL; MIC90 (Haemophilus influenzae [1]): 0.03 µg/mL (≈ 0.0721 µM); MIC Range (Haemophilus influenzae [1]): ≤0.004 to 0.5 µg/mL; MIC Range (Moraxella catarrhalis [2]): ≤0.004 to 0.03 µg/mL; MIC90 (Moraxella catarrhalis [2]; read-out: MIC90): 0.016 µg/mL (≈ 0.0384 µM); MIC (Moraxella catarrhalis [3]; Moraxella catarrhalis (n = 50)): 0.00375 to 0.06 µg/mL (≈ 0.00901 to 0.144 µM); MIC50 (Moraxella catarrhalis [3]; Moraxella catarrhalis (n = 50)): 0.015 µg/mL (≈ 0.036 µM); MIC90 (Moraxella catarrhalis [3]; Moraxella catarrhalis (n = 50)): 0.06 µg/mL (≈ 0.144 µM); MIC (Moraxella catarrhalis [3]; β-lactamase negative (n = 13)): 0.00375 to 0.06 µg/mL (≈ 0.00901 to 0.144 µM); MIC50 (Moraxella catarrhalis [3]; β-lactamase negative (n = 13)): 0.0075 µg/mL (≈ 0.018 µM); MIC90 (Moraxella catarrhalis [3]; β-lactamase negative (n = 13)): 0.036 µg/mL (≈ 0.0865 µM); MIC (Moraxella catarrhalis [3]; β-lactamase positive (n = 37)): 0.00375 to 0.06 µg/mL (≈ 0.00901 to 0.144 µM); MIC50 (Moraxella catarrhalis [3]; β-lactamase positive (n = 37)): 0.015 µg/mL (≈ 0.036 µM); MIC90 (Moraxella catarrhalis [3]; β-lactamase positive (n = 37)): 0.03 µg/mL (≈ 0.0721 µM); MIC Range (Klebsiella pneumoniae; Klebsiella pneumoniae (n = 50)): ≤0.0075 to 0.5 µg/mL; MIC50 (Klebsiella pneumoniae; Klebsiella pneumoniae (n = 50)): 0.06 µg/mL (≈ 0.144 µM); MIC90 (Klebsiella pneumoniae; Klebsiella pneumoniae (n = 50)): 0.5 µg/mL (≈ 1.2 µM); MIC50 (Klebsiella pneumoniae; [6]): 0.06 µg/mL (≈ 0.144 µM); MIC90 (Klebsiella pneumoniae; [6]): 0.12 µg/mL (≈ 0.288 µM); MIC50 (Klebsiella pneumoniae; [7]): 0.5 µg/mL (≈ 1.2 µM); MIC90 (Klebsiella pneumoniae; [7]): 0.5 µg/mL (≈ 1.2 µM); MIC Range (Klebsiella pneumoniae; [6]): ≤0.0075 to 0.015 µg/mL; MIC Range (Klebsiella pneumoniae; [7]): 0.06 to 0.5 µg/mL; MIC50 (Haemophilus influenzae [4]): 0.016 µg/mL (≈ 0.0384 µM); MIC90 (Haemophilus influenzae [4]): 0.031 µg/mL (≈ 0.0745 µM); MIC Range (Haemophilus influenzae [4]): ≤0.004 to 0.031 µg/mL; MIC Range (Staphylococcus aureus; [8]): 0.016 to 32 µg/mL; MIC Range (Staphylococcus aureus; [9]): ≤0.008 to 0.5 µg/mL; MIC50 (Staphylococcus aureus; [8]): 1 µg/mL (≈ 2.4 µM); MIC90 (Staphylococcus aureus; [8]): 8 µg/mL (≈ 19.2 µM); MIC50 (Staphylococcus aureus; [9]): 0.032 µg/mL (≈ 0.0769 µM); MIC90 (Staphylococcus aureus; [9]): 0.063 µg/mL (≈ 0.151 µM); MIC (Staphylococcus aureus; strain TMS1* (spontaneous mutant resistant to ciprofloxacin)): 0.125 µg/mL (≈ 0.3 µM); MIC (Staphylococcus aureus; strain TMS3, read-out: MIC): 128 µg/mL (≈ 307 µM); MIC (Staphylococcus aureus; strain TMS4, read-out: MIC): 0.5 µg/mL (≈ 1.2 µM); MIC (Staphylococcus aureus; strain TMS5, read-out: MIC): 1 µg/mL (≈ 2.4 µM); MIC (Staphylococcus aureus; strain TMS6, read-out: MIC): 0.5 µg/mL (≈ 1.2 µM); MIC Range [5, 10]: 0.032 to 8 µg/mL; MIC Range [5, 11]: ≤0.008 to 2 µg/mL; MIC50 [5, 10]: 1 µg/mL (≈ 2.4 µM); MIC90 [5, 10]: 2 µg/mL (≈ 4.8 µM); MIC50 [5, 11]: 0.032 µg/mL (≈ 0.0769 µM); MIC90 [5, 11]: 1 µg/mL (≈ 2.4 µM); MIC50 (Streptococcus pyogenes; Streptococcus pyogenes): 0.125 µg/mL (≈ 0.3 µM); MIC90 (Streptococcus pyogenes; Streptococcus pyogenes (n=51)): 0.5 µg/mL (≈ 1.2 µM); MIC Range (Streptococcus pyogenes; Streptococcus pyogenes (n=51)): 0.063 to 0.5 µg/mL; MIC (Enterococcus gallinarum): 0.125 µg/mL (≈ 0.3 µM); MIC (Enterococcus gallinarum; Enterococcus gallinarum (vanC1), strain TMS2, read-out: MIC): 0.25 µg/mL (≈ 0.6 µM); MIC (Enterococcus gallinarum; Enterococcus gallinarum (vanC1), strain TMS3, read-out: MIC): 0.25 µg/mL (≈ 0.6 µM); MIC (Enterococcus gallinarum; Enterococcus gallinarum (vanC1), strain TMS4, read-out: MIC): 0.063 µg/mL (≈ 0.151 µM); MIC50 (Citrobacter freundii; Citrobacter freundii): 0.125 µg/mL (≈ 0.3 µM); MIC90 (Citrobacter freundii; Citrobacter freundii (n=39)): 2 µg/mL (≈ 4.8 µM); MIC Range (Citrobacter freundii; Citrobacter freundii (n=39)): ≤0.008 to 4 µg/mL; MIC50 (Salmonella spp.): 0.032 µg/mL (≈ 0.0769 µM)
